Laboratory results: ChEMBL document CHEMBL5579798, “Discovery of novel oridonin sulfamide derivatives as potent NLRP3 inhibitors by a visible-light photocatalysis-enabled peripheral editing” (Bioorg Med Chem Lett, 2024)

Test: Cytotoxicity against human THP-1 cells by CCK-8 method
Type: toxicity, cell-based

SMILES | CC50
CC1(C)CC[C@H](O)[C@]23CO[C@](O)([C@@H](O)[C@H]12)[C@]12C(=O)[C@@H](CCN)[C@H](CC[C@@H]31)[C@H]2O | > 100 µM
Cn1ccc(S(=O)(=O)NCC[C@@H]2C(=O)[C@]34[C@H](O)[C@H]2CC[C@H]3[C@@]23CO[C@]4(O)[C@@H](O)[C@@H]2C(C)(C)CC[C@@H]3O)n1 | > 100 µM
CC(C)(C)OC(=O)NCC[C@@H]1C(=O)[C@]23[C@H](O)[C@H]1CC[C@H]2[C@@]12CO[C@]3(O)[C@@H](O)[C@@H]1C(C)(C)CC[C@@H]2O | > 100 µM
CC1(C)CC[C@H](O)[C@]23CO[C@](O)([C@@H](O)[C@H]12)[C@]12C(=O)[C@@H](CCNS(=O)(=O)c4ccc(C(F)(F)F)cc4)[C@H](CC[C@@H]31)[C@H]2O | > 100 µM
CC1(C)CC[C@H](O)[C@]23CO[C@](O)([C@@H](O)[C@H]12)[C@]12C(=O)[C@@H](CCNS(=O)(=O)/C=C/c4ccccc4)[C@H](CC[C@@H]31)[C@H]2O | > 100 µM
CC1(C)CC[C@H](O)[C@]23CO[C@](O)([C@@H](O)[C@H]12)[C@]12C(=O)[C@@H](CCNS(=O)(=O)c4ccsc4)[C@H](CC[C@@H]31)[C@H]2O | > 100 µM
CC1(C)CC[C@H](O)[C@]23CO[C@](O)([C@@H](O)[C@H]12)[C@]12C(=O)[C@@H](CCNS(=O)(=O)c4ccc(F)cc4)[C@H](CC[C@@H]31)[C@H]2O | > 100 µM
CC1(C)CC[C@H](O)[C@]23CO[C@](O)([C@@H](O)[C@H]12)[C@]12C(=O)[C@@H](CCNS(=O)(=O)c4ccccc4)[C@H](CC[C@@H]31)[C@H]2O | > 100 µM
COc1ccc(S(=O)(=O)NCC[C@@H]2C(=O)[C@]34[C@H](O)[C@H]2CC[C@H]3[C@@]23CO[C@]4(O)[C@@H](O)[C@@H]2C(C)(C)CC[C@@H]3O)cc1 | > 100 µM
CC1(C)CC[C@H](O)[C@]23CO[C@](O)([C@@H](O)[C@H]12)[C@]12C(=O)[C@@H](CCNS(=O)(=O)c4ccc(C#N)cc4)[C@H](CC[C@@H]31)[C@H]2O | > 100 µM
C=C1C(=O)[C@]23[C@H](O)[C@H]1CC[C@H]2[C@@]12CO[C@]3(O)[C@@H](O)[C@@H]1C(C)(C)CC[C@@H]2O [ORIDONIN] | 19.8 µM
CC1(C)CC[C@H](O)[C@]23CO[C@](O)([C@@H](O)[C@H]12)[C@]12C(=O)[C@@H](CCNS(=O)(=O)c4cccnc4)[C@H](CC[C@@H]31)[C@H]2O | > 100 µM
CN(C)c1cccc2c(S(=O)(=O)NCC[C@@H]3C(=O)[C@]45[C@H](O)[C@H]3CC[C@H]4[C@@]34CO[C@]5(O)[C@@H](O)[C@@H]3C(C)(C)CC[C@@H]4O)cccc12 | 96.8 µM
